Laboratory results from patent US12624068B2, “Exon skipping by peptide nucleic acid derivatives” (OliPass Corporation, priority 2016, dated 2026).
{Fethoc} = N-terminal Fethoc capping group (publication's abbreviation); [C(1O2)] = modified PNA monomer acting as cytosine, C(pOq) type, 1O2; [A(5)] = modified PNA monomer acting as adenine, A(p) with p=5; [G(5)] = modified PNA monomer acting as guanine, G(p) type, p=5; [G(6)] = modified PNA monomer acting as guanine, G(p) with p=6; {NH2} = C-terminal unsubstituted amide (-NH2); [C(12)] = modified PNA cytosine monomer

Experiments:
[1] = test system: rats with diabetes-induced peripheral neuropathic pain (DPNP); experiment: Reversal of allodynia (von Frey) in rats with diabetes-induced peripheral neuropathic pain; type: in vivo, rat; settings: 100 pmole/Kg subcutaneous in Days 11, 13, 15, 17 and 19
Procedure: “SCN-ASO 7”, “SCN-ASO 8”, “SCN-ASO 21”, “SCN-ASO 35”, “SCN-ASO 36” and “SCN-ASO 37” were evaluated for their ability to reverse the allodynia in rats with diabetes-induced peripheral neuropathic pain (DPNP). In this example, the six SCN9A ASOs targeting a total of five splice sites were evaluated for their ability to reverse the allodynia induced by diabetic neuropathy in rats.
[Induction of DPNP and Grouping] Diabetes was induced in rats by an intraperitoneal injection of streptozotocin at 60 mg/Kg in Day 0. In Day 10, rats with DPNP were randomly assigned to […] of negative control (vehicle only), “SCN-ASO 7” 100 pmole/Kg, “SCN-ASO 8” 100 pmole/Kg, “SCN-ASO 21” 100 pmole/Kg, “SCN-ASO 35” 100 pmole/Kg, “SCN-ASO 36” 100 pmole/Kg, and “SCN-ASO 37” 100 pmole/Kg. The animals were grouped based on the von Frey scores of individual animals in Day 10. (N=8-9 per group) Allodynia was scored using a set of microfilaments (Touch Test®) according to the “Up & Down” method. [J Neurosci. Methods vol 53(1), 55-63 (1994)]
[ASO Treatment and von Frey Scoring] ASO solutions for injection were prepared by serially diluting aqueous mother stock solutions of the SCN9A ASOs to 100 nM in PBS (phosphate buffered saline). Animals were subcutaneously administered with ASO at 1 mL/Kg in Days 11, 13, 15, 17 and 19. Von Frey scoring was carried out 2 hours post dose in Days 11, 13, 15, 17 and 19. Von Frey scoring was additionally performed in Days 21 and 23 in order to assess the duration of the therapeutic activity after the final dosing. Daily von Frey scores were evaluated for statistical significance by student's t-test against the negative control group (vehicle only, i.e., PBS).

human IDO1 pre-mRNA = experiment: IDO1 nested PCR for exon skipping in SKOV3 cells; type: cell-based; settings: 48 hours
Procedure: “IDO-ASO 1” was evaluated for its ability to induce exon skipping in SKOV3 cells (Cat. Number HTB-77, ATCC) by IDO1 nested PCR as follows. [Cell Culture & ASO Treatment] SKOV3 (human ovary adenocarcinoma) cells were subcultured in 60 mm culture dish containing 5 mL McCoy's 5A modified medium supplemented with 10% FBS, 1% streptomycin/penicillin, 1% L-glutamine, and 1% sodium pyruvate under 5% CO2 at 37° C., and treated with “IDO-ASO 1” for 48 hours at 0 zM (negative control), 10 zM, 100 zM or 1 aM. [RNA Extraction & cDNA Synthesis by One-Step RT-PCR] Total RNA was extracted from the cells using “Universal RNA Extraction Kit” (Cat. Number 9767, Takara) according to the manufacturer's instructions. […] NO: 114); and IDO-exon 10_reverse: (5'→3') […] [Nested PCR Amplification] 1 μL of cDNA was further amplified in a 20 μL nested PCR reaction (Cat. No. K2612, Bioneer) against a set of exon-specific primers [IDO-exon 4_forward: (5'→3') […] NO: 116); and IDO-exon 9_reverse: (5'→3') […] [Identification of Exon Skipping Product] The PCR products were subjected to electrophoretic separation on a 2% agarose gel. The bands of target size were collected and analyzed by Sanger sequencing. […] [ASO Treatment] SKOV3 cells grown in 60 mm culture dish were treated with “IDO-ASO 5” at 0 (negative control), 1, 3, 10, 30 or 100 aM for 48 hours. [cDNA Synthesis by One-step PCR] […] NO: 119); and IDO-exon 8_reverse: (5'→3') […] [Nested PCR Amplification] 1 μL of cDNA was further amplified in a 20 μL nested PCR (Cat. No. K2612, Bioneer) reaction using a set of exon-specific primers [IDO-exon 1n_forward: (5'→3') […] NO: 121); and IDO-exon 8n_reverse: (5'→3') […] “IDO-ASO 6” was evaluated for its ability to induce exon skipping in SKOV3 cells by IDO1 nested PCR as described in “IDO1 Example 3” unless noted otherwise.

B16F10 melanoma = experiment: Antitumor activity against B16F10 melanoma in C57BL/6 mice; type: in vivo
Procedure: “PD-ASO 2” was evaluated for its antitumor activity in male C57BL/6 mice (4 weeks old) injected with B16F10 melanoma cells as provided below.
[Inoculation of B16F10 Melanoma Cells] B16F10 mouse melanoma cells (Cat. Number CRL-6475, ATCC) were maintained in 150 mm culture dish containing DMEM supplemented with 10% FBS, 1% streptomycin/penicillin, and 0.01 mg/ml bovine insulin. In Day 0, ca 1×10^5 B16F10 cells dissolved in 50 μL PBS were injected to each animal at the right rear flank.
[Grouping & ASO Treatment] In Day 3, the animals were randomly assigned by weight to 4 groups of 0 (negative control), 2, 10 and 50 pmole/Kg “PD-ASO 2”. (N=15 per group)
Injection solutions were prepared by serially diluting an aqueous mother stock solution of “PD-ASO 2” in PBS to 0 nM (PBS only), 0.4 nM, 2 nM and […] “PD-ASO 2” for the negative control, 2, 10 and 50 pmole/Kg “PD-ASO 2” group, respectively.
The animals were subcutaneously administered with an injection solution at 5 mL/Kg, 2× per week during Day 3 to Day 17.
[Anti-tumor Activity] The anti-tumor activity was assessed by changes in the tumor volume between each ASO treatment group and the negative control group.

[2] = 2 pmole/Kg subcutaneous, 2× per week Day 3 to Day 17

“Fethoc-A(5)TA(5)-CC(1O2)C-TG(6)A-A(5)TC-TG(6)T-NH2 (ATACCCTGAATCTGT; splice-switching; all peptide nucleic acid (PNA), [A(5)] at 1, 3, 10, [C(1O2)] at 5, [G(6)] at 8, 14, 5' {Fethoc}, 3' {NH2}; peptide nucleic acid backbone) [SCN-ASO 36]” was tested, and the “maximum therapeutic efficacy based on the von Frey scores in Day 19” value (from here on “maximum therapeutic efficacy based”) [1] was 0%.
With “Fethoc-AA(5)G-A(5)C(12)T-CG(6)G-A(5)GC(1O2)-TA(5)-NH2 (AAGACTCGGAGCTA; all peptide nucleic acid (PNA), [A(5)] at 2, 4, 10, 14, [C(12)] at 5, [G(6)] at 8, [C(1O2)] at 12, 5' {Fethoc}, 3' {NH2}) [SCN-ASO 37]” the “maximum therapeutic efficacy based” value [1] was 22%.
For “Fethoc-CA(5)A-A(5)CC(1O2)-TTA(5)-CGG(6)-A-NH2 (CAAACCTTACGGA; splice-switching; all peptide nucleic acid (PNA), [A(5)] at 2, 4, 9, [C(1O2)] at 6, [G(6)] at 12, 5' {Fethoc}, 3' {NH2}; peptide nucleic acid backbone) [IDO-ASO 5]”, the “IDO1 exon skipping by nested PCR” value (human IDO1 pre-mRNA; 30 and 100 aM) was “clearly yielded the mRNA splice variants lacking exons 2-4 and exons 2-6”.
“Fethoc-CC(1O2)T-CA(5)C-CTG(5)-TTA(5)-C(1O2)CA(5)-C-NH2 (CCTCACCTGTTACCAC; splice-switching; all peptide nucleic acid (PNA), [C(1O2)] at 2, 13, [A(5)] at 5, 12, 15, [G(5)] at 9, 5' {Fethoc}, 3' {NH2}; peptide nucleic acid backbone) [PD-ASO 2]” was tested, and the “average tumor weight in Day 19” value (B16F10 melanoma; 2 pmole/Kg) was ~0.35 g, the “inhibition of tumor growth by weight in Day 19” value (B16F10 melanoma; 2 pmole/Kg) was ~70% and the “inhibition of tumor growth (tumor volume) in Day 19” value (B16F10 melanoma; [2]) was ~55%. The “tumor volume in Day 19” value (B16F10 melanoma; [2]) was ~375 mm^3, the “antitumor activity (tumor volume)” value (B16F10 melanoma; 10 pmole/Kg, whole period) was “marginal without significance” and the “antitumor activity (tumor volume)” value (B16F10 melanoma; 50 pmole/Kg, Day 10 to Day 17) was “comparable to that of the 2 pmole/Kg group”. The “antitumor activity (tumor volume)” value (B16F10 melanoma; 50 pmole/Kg, Day 19) was “disappeared in Day 19”.
In the case of “Fethoc-GA(5)T-A(5)TG-A(5)GT-G(6)CA(5)-C(1O2)TA(5)-A-NH2 (GATATGAGTGCACTAA; splice-switching; all peptide nucleic acid (PNA), [A(5)] at 2, 4, 7, 12, 15, [G(6)] at 10, [C(1O2)] at 13, 5' {Fethoc}, 3' {NH2}; peptide nucleic acid backbone) [SCN-ASO 35]”, the “maximum therapeutic efficacy based” value [1] is reported as 52%.
In the case of “Fethoc-GG(6)C-AA(5)G-A(5)CC(1O2)-TGA(5)-T-NH2 (GGCAAGACCTGAT; splice-switching; all peptide nucleic acid (PNA), [G(6)] at 2, [A(5)] at 5, 7, 12, [C(1O2)] at 9, 5' {Fethoc}, 3' {NH2}; peptide nucleic acid backbone) [IDO-ASO 6]”, the “IDO1 exon skipping by nested PCR” value (human IDO1 pre-mRNA; 1 to 30 aM) is reported as “clearly yielded a single mRNA splice variant lacking exons 2-5” and the “IDO1 exon skipping by nested PCR” value (human IDO1 pre-mRNA; 100 aM) is reported as “the exon skipping band was not detected”.
With “Fethoc-TA(5)A-A(5)AG(6)-TG(6)T-A(5)CC(1O2)-TA(5)A-A(5)-NH2 (TAAAAGTGTACCTAAA; splice-switching; all peptide nucleic acid (PNA), [A(5)] at 2, 4, 10, 14, 16, [G(6)] at 6, 8, [C(1O2)] at 12, 5' {Fethoc}, 3' {NH2}; peptide nucleic acid backbone) [SCN-ASO 21]” the “maximum therapeutic efficacy based” value [1] was 93%.
